The supplement of paper PMC5908809

Assays:
[1] = tested on: normal NK cells expanded with K562-aAPC; test: percent inhibition of viability; higher = more inhibition; conditions: 72 h, IL-2 2.5 ng/mL
Experimental: (§1)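 Drug sensitivity and resistance testing on K562-aAPC-expanded normal NK cells: 5 concentrations (10-fold steps over a 10,000-fold range), 72 h at 37 °C, viability by CellTiter-Glo normalised to DMSO and benzethonium chloride controls; DSS from the fitted curve.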

[2] = tested on: DERL-7 (IL-2 2.5 ng/mL); test: as above; conditions: 72 h
[3] = tested on: IMC-1 (IL-2 20 ng/mL); test: as above; conditions: 72 h
[4] = tested on: KAI3 (IL-2 2.5 ng/mL); test: as above; conditions: 72 h
[5] = tested on: KHYG-1 (IL-2 2.5 ng/mL); test: as above; conditions: 72 h
[6] = tested on: NK-92 (IL-2 2.5 ng/mL); test: as above; conditions: 72 h
[7] = tested on: NK-YS (IL-2 2.5 ng/mL); test: as above; conditions: 72 h
[8] = tested on: NKL (IL-2 2.5 ng/mL); test: as above; conditions: 72 h
[9] = tested on: SNK-6 (IL-2 2.5 ng/mL); test: as above; conditions: 72 h
[10] = tested on: YT (IL-2 2.5 ng/mL); test: as above; conditions: 72 h
[11] = tested on: normal primary NK cells, pool 1 (3 donors) (IL-2 2.5 ng/mL); test: as above; conditions: 72 h
[12] = tested on: normal primary NK cells, pool 1 (3 donors), resting (IL-2 0 ng/mL); test: as above; conditions: 72 h
[13] = tested on: normal primary NK cells, pool 2 (3 donors) (IL-2 2.5 ng/mL); test: as above; conditions: 72 h
[14] = tested on: normal primary NK cells, pool 3 (3 donors) (IL-2 2.5 ng/mL); test: as above; conditions: 72 h
[15] = tested on: normal NK cells expanded with K562-aAPC; test: drug sensitivity score (DSS) (DSS units); higher = more sensitive; extreme values may be limits of the assay; conditions: 72 h; IL-2 2.5 ng/mL
Experimental: as §1

[16] = tested on: DERL-7 (IL-2 2.5 ng/mL); test: as above; conditions: 72 h
[17] = tested on: IMC-1 (IL-2 20 ng/mL); test: as above; conditions: 72 h
[18] = tested on: KAI3 (IL-2 2.5 ng/mL); test: as above; conditions: 72 h
[19] = tested on: KHYG-1 (IL-2 2.5 ng/mL); test: as above; conditions: 72 h
[20] = tested on: NK-92 (IL-2 2.5 ng/mL); test: as above; conditions: 72 h
[21] = tested on: NK-YS (IL-2 2.5 ng/mL); test: as above; conditions: 72 h
[22] = tested on: NKL (IL-2 2.5 ng/mL); test: as above; conditions: 72 h
[23] = tested on: SNK-6 (IL-2 2.5 ng/mL); test: as above; conditions: 72 h
[24] = tested on: YT (IL-2 2.5 ng/mL); test: as above; conditions: 72 h
[25] = tested on: normal primary NK cells, pool 1 (3 donors) (IL-2 2.5 ng/mL); test: as above; conditions: 72 h
[26] = tested on: normal primary NK cells, pool 1 (3 donors), resting (IL-2 0 ng/mL); test: as above; conditions: 72 h
[27] = tested on: normal primary NK cells, pool 2 (3 donors) (IL-2 2.5 ng/mL); test: as above; conditions: 72 h
[28] = tested on: normal primary NK cells, pool 3 (3 donors) (IL-2 2.5 ng/mL); test: as above; conditions: 72 h

CNC(=O)c1ccc(C)c(-n2c(C)cc(OCc3ccc(F)cc3F)c(Br)c2=O)c1 (max concentration tested 1000 nM)
percent inhibition of viability [%]
Conditions | 0.1 nM | 1 nM | 10 nM | 100 nM | 1000 nM
[1] | -9.29 | -8.5 | -9.81 | -3.39 | 11.1
[2] | -0.31 | -4.89 | -4.27 | 2.58 | 1.48
[3] | -9.65 | -8.9 | -7.96 | -3.82 | 12.4
[4] | -0.38 | 1.93 | 8.49 | 20.8 | 36
[5] | -4.44 | -7.81 | -8.38 | -3.53 | 12.3
[6] | -1.67 | -6.84 | -3.84 | -1.12 | 28.7
[7] | -6.34 | -5.21 | 0.76 | 7.92 | 26.5
[8] | -10.5 | -7 | 9.32 | 26.1 | 43.8
[9] | -18.8 | -0.3 | -20.7 | -13.9 | -14.7
[10] | -3.68 | -3.72 | -2.87 | 1.27 | 21.9
[11] | 0.91 | 0.08 | 13.3 | 13.8 | 17.8
[12] | 4.88 | 3.54 | 13.7 | 4.12 | 7.14
[13] | -5.3 | -4.39 | 0.85 | -1.04 | -5.85
[14] | -6.51 | -4.02 | 4.48 | 7.49 | 0.09

Conditions | drug sensitivity score
[15] | 0
[16] | 0
[17] | 0.02
[18] | 4.23
[19] | 0.02
[20] | 1.12
[21] | 2.15
[22] | 5.52
[23] | 0
[24] | 0.89
[25] | 3.24
[26] | 0
[27] | 0
[28] | 0

O=C(Nc1c[nH]nc1-c1nc2ccc(CN3CCOCC3)cc2[nH]1)NC1CC1 [AT9283] (max concentration tested 1000 nM)
percent inhibition of viability [%]
Conditions | 0.1 nM | 1 nM | 10 nM | 100 nM | 1000 nM
[1] | 0.7 | -5.39 | 3.23 | 57.8 | 65.9
[2] | 0.91 | 0.04 | 7.11 | 81.9 | 98.3
[3] | -3.86 | -1.55 | -6.66 | 65.3 | 100
[4] | -1.1 | -5.66 | 8.51 | 45.9 | 76.8
[5] | 0.97 | -2.56 | 0.97 | 83.4 | 96
[6] | 3.17 | 8.69 | 0.17 | 50.1 | 67.7
[7] | -4.25 | -5.41 | -2.2 | 57.1 | 62.4
[8] | -4.9 | -5.16 | -3.64 | 38.5 | 64.4
[9] | 13.2 | 8.33 | 13.9 | 73.1 | 96.5
[10] | 0.76 | -0.55 | 3.44 | 18.3 | 51.5
[11] | -12.6 | -14 | -13.3 | 12.2 | 12.7
[12] | -10.1 | -11 | -42.4 | -105 | -157
[13] | -12.3 | -10.8 | -12.5 | 0.3 | 9.78
[14] | -15.9 | -12.2 | -13.3 | -0.35 | 9.39

Conditions | drug sensitivity score
[15] | 11.1
[16] | 16
[17] | 13.1
[18] | 9.99
[19] | 15.2
[20] | 9.6
[21] | 10.4
[22] | 8.19
[23] | 15.5
[24] | 4.99
[25] | 0.59
[26] | 0
[27] | 0
[28] | 0

COc1cc(C(=O)NC2CCN(C)CC2)c(F)cc1Nc1ncc2c(n1)N(C1CCCC1)CC(F)(F)C(=O)N2C [TAK-960] (max concentration tested 2500 nM)
percent inhibition of viability [%]
Conditions | 0.25 nM | 2.5 nM | 25 nM | 250 nM | 2500 nM
[1] | -3.09 | 0.01 | 0.41 | 9.42 | 8.37
[2] | -1.39 | -5.61 | -0.81 | -6.15 | -11.4
[3] | -4.4 | 4.01 | 9.33 | 8.23 | 11.8
[4] | -8.99 | -1.96 | -2.51 | -1.54 | 2.64
[5] | 0.04 | 3.31 | 3.4 | 2.48 | 6.51
[6] | -8.09 | -7.71 | 9.2 | -1.64 | 15.2
[7] | -3.49 | 1.57 | 0.97 | 0.32 | 6.84
[8] | -17.8 | -2.17 | 0.04 | 4.31 | 2.51
[9] | 22.6 | 22 | 36.4 | 38 | 22.1
[10] | 1.09 | 0.71 | 8.79 | 0.43 | 6.32
[11] | 7.7 | -2.83 | -1.46 | -9 | 3.2
[12] | 11.1 | -6.28 | -3.33 | -13.8 | -6.51
[13] | -10.9 | -4.09 | 10.7 | 0.25 | 13.6
[14] | -10.9 | -5.87 | 7.99 | -6.67 | -0.88

Conditions | drug sensitivity score
[15] | 0
[16] | 0.89
[17] | 0.63
[18] | 0
[19] | 0
[20] | 0.18
[21] | 0
[22] | 0
[23] | 13
[24] | 0
[25] | 0
[26] | 0
[27] | 0.16
[28] | 0
